What was measured:
Factor 11 protein = Factor 11 protein in monkey plasma by sandwich ELISA (Example 46); type: in vivo, cynomolgus monkeys; details: 25 mg/kg subcutaneously
Procedure, shortened: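 Monkeys (2 male, 2 female per group) dosed s.c. with antisense oligonucleotide at 25 mg/kg, three times weekly in week 1 then twice weekly through week 8; PBS controls. Plasma Factor 11 measured by sandwich ELISA (1:50 dilution, OPD, 490 nm); expressed as % reduction versus PBS.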

human Factor 11 mRNA [1] = assay: Dose-dependent inhibition of human Factor 11 in HepG2 cells, lipofectin 2.34-75 nM (Example 5); type: cell-based; details: for percent inhibition of human Factor 11 mRNA relative to untreated control cells: ~16 hours
Experimental: Cells were plated at a density of 10,000 cells per well and transfected using lipofectin reagent with 2.34 nM, 4.69 nM, 9.375 nM, 18.75 nM, 37.5 nM, and 75 nM concentrations of antisense oligonucleotide, as specified in Table 11. After a treatment period of approximately 16 hours, RNA was isolated from the cells and human Factor 11 mRNA levels were measured by quantitative real-time PCR. Human Factor 11 primer probe set RTS 2966 was used to measure mRNA levels. Factor 11 mRNA levels were adjusted according to total RNA content, as measured by RIBOGREEN. Results are presented as percent inhibition of human Factor 11, relative to untreated control cells.

human Factor 11 mRNA [2] = assay: Dose-dependent inhibition of human Factor 11 in HepB3 cells, electroporation (Example 7); type: cell-based; details: for percent inhibition of human Factor 11 mRNA relative to untreated control cells: ~16 hours
Experimental: The gapmers were also transfected via electroporation and their dose dependent inhibition of human Factor 11 mRNA was measured. Cells were plated at a density of 20,000 cells per well and transfected via electroporation with 41.15 nM, 123.457 nM, 370.37 nM, 1111.11 nM, 3333.33 nM, and 10,000 nM concentrations of antisense oligonucleotide, as specified in Table 15. After a treatment period of approximately 16 hours, RNA was isolated from the cells and human Factor 11 mRNA levels were measured by quantitative real-time PCR. Human Factor 11 primer probe set RTS 2966 was used to measure mRNA levels. Factor 11 mRNA levels were adjusted according to total RNA content, as measured by RIBOGREEN. Results are presented as percent inhibition of human Factor 11, relative to untreated control cells.

[3] = Viscosity of ISIS antisense oligonucleotides, micro-viscometer at 25 °C (Example 47); type: physicochemical
Procedure, shortened: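 Oligonucleotide (32-35 mg) was dissolved in 120 μL water by heating at 50° C, and viscosity was measured by micro-viscometer at 25° C. Concentration was checked by UV at 260 nm at 85° C on a dilution in water. Screening cut-off: >40 cP at 165-185 mg/mL.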

416858 (antisense ACGGCATTGGTGCACAGTTT; 5-10-5 gapmer, further chemistry not given here) [compound 416858]
Inhibition of Factor 11 protein relative to the PBS control (percentage reduction) (Factor 11 protein; Day 10, plasma): 36%
Inhibition of Factor 11 protein relative to the PBS control (percentage reduction) (Factor 11 protein; Day 17, plasma): 49%
Inhibition of Factor 11 protein relative to the PBS control (percentage reduction) (Factor 11 protein; Day 24, plasma): 62%
Inhibition of Factor 11 protein relative to the PBS control (percentage reduction) (Factor 11 protein; Day 31, plasma): 68%
Inhibition of Factor 11 protein relative to the PBS control (percentage reduction) (Factor 11 protein; Day 38, plasma): 74%
Inhibition of Factor 11 protein relative to the PBS control (percentage reduction) (Factor 11 protein; Day 45, plasma): 79%
Inhibition of Factor 11 protein relative to the PBS control (percentage reduction) (Factor 11 protein; Day 52, plasma): 81%
Inhibition of Factor 11 protein relative to the PBS control (percentage reduction) (Factor 11 protein; Day 55, plasma): 81%
Inhibition of Factor 11 protein relative to the PBS control (percentage reduction) (Factor 11 protein; Day −5, plasma): 0%
Inhibition of Factor 11 protein relative to the PBS control (percentage reduction) (Factor 11 protein; Day −14, plasma): 4%
IC50 (human Factor 11 mRNA [1]): 0.011 µM
percent inhibition of human Factor 11 mRNA relative to untreated control cells (human Factor 11 mRNA [1]; 2.34 nM): 11%
percent inhibition of human Factor 11 mRNA relative to untreated control cells (human Factor 11 mRNA [1]; 4.69 nM): 35%
percent inhibition of human Factor 11 mRNA relative to untreated control cells (human Factor 11 mRNA [1]; 9.375 nM): 46%
percent inhibition of human Factor 11 mRNA relative to untreated control cells (human Factor 11 mRNA [1]; 18.75 nM): 61%
percent inhibition of human Factor 11 mRNA relative to untreated control cells (human Factor 11 mRNA [1]; 37.5 nM): 75%
percent inhibition of human Factor 11 mRNA relative to untreated control cells (human Factor 11 mRNA [1]; 75 nM): 77%
IC50 (human Factor 11 mRNA [2]): 0.3 µM
percent inhibition of human Factor 11 mRNA relative to untreated control cells (human Factor 11 mRNA [2]; 41.15 nM): 23%
percent inhibition of human Factor 11 mRNA relative to untreated control cells (human Factor 11 mRNA [2]; 123.457 nM): 45%
percent inhibition of human Factor 11 mRNA relative to untreated control cells (human Factor 11 mRNA [2]; 370.37 nM): 52%
percent inhibition of human Factor 11 mRNA relative to untreated control cells (human Factor 11 mRNA [2]; 1111.11 nM): 64%
percent inhibition of human Factor 11 mRNA relative to untreated control cells (human Factor 11 mRNA [2]; 3333.33 nM): 87%
percent inhibition of human Factor 11 mRNA relative to untreated control cells (human Factor 11 mRNA [2]; 10000 nM): 92%
Concentration ([3]; concentration of the viscosity sample, UV reading at 260 nM at 85° C.): 166 mg/mL
Viscosity ([3]; in water, micro-viscometer at 25° C., at the concentration of the same line): 10 cP

From patent US20230263822A1, “MODULATION OF FACTOR 11 EXPRESSION” (Ionis Pharmaceuticals, Inc., priority 2008, published 2023)
